Experimental data as given in PMC5218480 (PLoS ONE, 2017).

Tested on: MV-4-11 cells
Assay: Gene expression microarray analysis (Affymetrix PrimeView) and GSEA
Type: cell-based, human
Parameters: RFU PODN (11730768_x_at) / Fold change /veh PODN (11730768_x_at) / RFU LINC00158 (11744669_a_at) / Fold change /veh LINC00158 (11744669_a_at) / RFU DUSP10 (11751237_a_at) / Fold change /veh DUSP10 (11751237_a_at) / RFU ID3 (11757404_x_at) / Fold change /veh ID3 (11757404_x_at) / RFU PLEKHG5 (11737974_s_at) / Fold change /veh PLEKHG5 (11737974_s_at) / RFU LRRC4B (11730491_at) / Fold change /veh LRRC4B (11730491_at) / RFU GIMAP4 (11747438_a_at) / Fold change /veh GIMAP4 (11747438_a_at) / RFU KRT8 (11758183_x_at) / Fold change /veh KRT8 (11758183_x_at) / RFU CNN1 (11734310_a_at) / Fold change /veh CNN1 (11734310_a_at) / RFU VPS37D (11726825_at) / Fold change /veh VPS37D (11726825_at) / RFU C10orf10 (11716522_x_at) / Fold change /veh C10orf10 (11716522_x_at) / RFU KIR2DL2 /// KIR2DL4 /// KIR2DL5A /// KIR2DL5B /// KIR2DS1 /// KIR2DS2 /// KIR2DS3 /// KIR2DS4 /// KIR3DL3 /// KIR3DL3 /// KIR3DS1 (11738374_at) / Fold change /veh KIR2DL2 /// KIR2DL4 /// KIR2DL5A /// KIR2DL5B /// KIR2DS1 /// KIR2DS2 /// KIR2DS3 /// KIR2DS4 /// KIR3DL3 /// KIR3DL3 /// KIR3DS1 (11738374_at) / RFU C1QL1 (11718748_at) / Fold change /veh C1QL1 (11718748_at) / RFU TMPRSS4 (11747572_a_at) / Fold change /veh TMPRSS4 (11747572_a_at) / RFU HAMP (11756126_x_at) / Fold change /veh HAMP (11756126_x_at) / RFU RNFT2 (11725882_a_at) / Fold change /veh RNFT2 (11725882_a_at) / RFU NR4A2 (11747474_a_at) / Fold change /veh NR4A2 (11747474_a_at) / RFU ABCC12 (11746883_a_at) / Fold change /veh ABCC12 (11746883_a_at) / RFU TMEM136 (11760407_x_at) / Fold change /veh TMEM136 (11760407_x_at) / RFU CLDN22 /// WWC2 (11732394_at) / Fold change /veh CLDN22 /// WWC2 (11732394_at) / RFU HLA-DPB1 (11760878_x_at) / Fold change /veh HLA-DPB1 (11760878_x_at) / RFU SPINT1 (11716480_a_at) / Fold change /veh SPINT1 (11716480_a_at) / RFU GAP43 (11754022_s_at) / Fold change /veh GAP43 (11754022_s_at) / RFU A4GNT (11735810_at) / Fold change /veh A4GNT (11735810_at) / RFU PRB3 (11715151_x_at) / Fold change /veh PRB3 (11715151_x_at) / RFU TUBB4B (11761932_at) / Fold change /veh TUBB4B (11761932_at) / RFU CAPN14 (11732068_a_at) / Fold change /veh CAPN14 (11732068_a_at) / RFU TMCC2 (11721928_a_at) / Fold change /veh TMCC2 (11721928_a_at) / RFU IRGQ (11745062_a_at) / Fold change /veh IRGQ (11745062_a_at) / RFU FAM174B (11720279_a_at) / Fold change /veh FAM174B (11720279_a_at) / RFU TMPRSS4 (11748680_a_at) / Fold change /veh TMPRSS4 (11748680_a_at) / RFU FAM212B (11763350_a_at) / Fold change /veh FAM212B (11763350_a_at) / RFU PLEKHG5 (11743358_a_at) / Fold change /veh PLEKHG5 (11743358_a_at) / RFU ZSCAN30 (11745921_a_at) / Fold change /veh ZSCAN30 (11745921_a_at) / RFU CMKLR1 (11741424_a_at) / Fold change /veh CMKLR1 (11741424_a_at) / RFU LOC101060620 /// MAPK8IP1 (11723275_at) / Fold change /veh LOC101060620 /// MAPK8IP1 (11723275_at) / RFU SPTSSB (11747773_x_at) / Fold change /veh SPTSSB (11747773_x_at) / RFU PRSS12 (11739890_at) / Fold change /veh PRSS12 (11739890_at) / RFU BIN1 (11741810_x_at) / Fold change /veh BIN1 (11741810_x_at) / RFU WNT11 (11732464_a_at) / Fold change /veh WNT11 (11732464_a_at) / RFU C10orf10 (11716521_a_at) / Fold change /veh C10orf10 (11716521_a_at) / RFU C5orf56 (11738089_at) / Fold change /veh C5orf56 (11738089_at) / RFU CYB561 (11721691_x_at) / Fold change /veh CYB561 (11721691_x_at) / RFU ANKRD19P (11752326_a_at) / Fold change /veh ANKRD19P (11752326_a_at) / RFU OR2T12 /// OR2T33 /// OR2T8 (11738714_s_at) / Fold change /veh OR2T12 /// OR2T33 /// OR2T8 (11738714_s_at) / RFU VCAN (11748164_a_at) / Fold change /veh VCAN (11748164_a_at) / RFU JSRP1 (11732532_at) / Fold change /veh JSRP1 (11732532_at) / RFU KRTAP10-11 (11738290_x_at) / Fold change /veh KRTAP10-11 (11738290_x_at) / RFU MYO3A (11730013_a_at) / Fold change /veh MYO3A (11730013_a_at) / RFU EBF3 (11725865_a_at) / Fold change /veh EBF3 (11725865_a_at) / RFU CAMK2N1 (11719241_x_at) / Fold change /veh CAMK2N1 (11719241_x_at) / RFU C5orf56 (11738088_a_at) / Fold change /veh C5orf56 (11738088_a_at) / RFU OLFML3 (11715873_a_at) / Fold change /veh OLFML3 (11715873_a_at) / RFU LOC100653217 /// NTM (11731650_a_at) / Fold change /veh LOC100653217 /// NTM (11731650_a_at) / RFU MAPK11 (11762145_a_at) / Fold change /veh MAPK11 (11762145_a_at) / RFU FIZ1 (11724087_x_at) / Fold change /veh FIZ1 (11724087_x_at) / RFU OASL (11726364_x_at) / Fold change /veh OASL (11726364_x_at) / RFU SOX15 (11748057_x_at) / Fold change /veh SOX15 (11748057_x_at) / RFU CD79A (11719716_a_at) / Fold change /veh CD79A (11719716_a_at) / RFU HIST1H1D (11736915_at) / Fold change /veh HIST1H1D (11736915_at) / RFU CASKIN2 (11723855_a_at) / Fold change /veh CASKIN2 (11723855_a_at) / RFU LOC730098 (11760151_x_at) / Fold change /veh LOC730098 (11760151_x_at) / RFU OR4N2 (11742367_at) / Fold change /veh OR4N2 (11742367_at) / RFU PRRT2 (11749266_a_at) / Fold change /veh PRRT2 (11749266_a_at) / RFU SNX32 (11753110_a_at) / Fold change /veh SNX32 (11753110_a_at) / RFU CDHR5 (11726645_a_at) / Fold change /veh CDHR5 (11726645_a_at) / RFU RCAN1 (11760418_a_at) / Fold change /veh RCAN1 (11760418_a_at) / RFU FAM167A (11723789_a_at) / Fold change /veh FAM167A (11723789_a_at) / RFU FAM26E (11764081_at) / Fold change /veh FAM26E (11764081_at) / RFU ISYNA1 (11749810_s_at) / Fold change /veh ISYNA1 (11749810_s_at) / RFU ACY1 (11761880_at) / Fold change /veh ACY1 (11761880_at) / RFU 11764098_at / Fold change /veh 11764098_at / RFU SAMD14 (11745864_x_at) / Fold change /veh SAMD14 (11745864_x_at) / RFU NPB (11741838_a_at) / Fold change /veh NPB (11741838_a_at) / RFU TMPRSS6 (11731388_a_at) / Fold change /veh TMPRSS6 (11731388_a_at) / RFU KRTAP10-2 (11738614_at) / Fold change /veh KRTAP10-2 (11738614_at) / RFU ARHGAP8 /// PRR5-ARHGAP8 (11727945_x_at) / Fold change /veh ARHGAP8 /// PRR5-ARHGAP8 (11727945_x_at) / RFU KRTAP5-7 /// NADSYN1 (11734609_at) / Fold change /veh KRTAP5-7 /// NADSYN1 (11734609_at) / RFU RASL12 (11751679_a_at) / Fold change /veh RASL12 (11751679_a_at) / RFU CDKN2B (11736163_a_at) / Fold change /veh CDKN2B (11736163_a_at) / RFU PRF1 (11729649_at) / Fold change /veh PRF1 (11729649_at) / RFU, ZNF638 /// ZNF638-IT1 / Fold change vs veh, ZNF638 /// ZNF638-IT1 / RFU, PANK3 / Fold change vs veh, PANK3 / RFU, SH3YL1 / Fold change vs veh, SH3YL1 / RFU, ZEB2 / Fold change vs veh, ZEB2 / RFU, NRIP1 / Fold change vs veh, NRIP1 / RFU, PTTG1IP / Fold change vs veh, PTTG1IP / RFU, CAPN2 / Fold change vs veh, CAPN2 / RFU, MED14 / Fold change vs veh, MED14 / RFU, SNORA58 / Fold change vs veh, SNORA58 / RFU, C1orf63 / Fold change vs veh, C1orf63 / RFU, LRRFIP1 / Fold change vs veh, LRRFIP1 / RFU, NDUFAF7 / Fold change vs veh, NDUFAF7 / RFU, SLC12A2 / Fold change vs veh, SLC12A2 / RFU, IBTK / Fold change vs veh, IBTK / RFU, ESF1 / Fold change vs veh, ESF1 / Fold change vs veh, TMEM50B / RFU, TAOK1 / Fold change vs veh, TAOK1 / RFU, ACBD3 / Fold change vs veh, ACBD3 / RFU, TMA16 / Fold change vs veh, TMA16 / RFU, RWDD3 / Fold change vs veh, RWDD3 / RFU, BCAT1 / Fold change vs veh, BCAT1 / RFU, EDEM3 / Fold change vs veh, EDEM3 / RFU, TMEM33 / Fold change vs veh, TMEM33 / RFU, WDR75 / Fold change vs veh, WDR75 / RFU, AHCTF1 / Fold change vs veh, AHCTF1 / RFU, TFRC / Fold change vs veh, TFRC / RFU, ZDHHC17 / Fold change vs veh, ZDHHC17 / RFU, NOM1 / Fold change vs veh, NOM1 / RFU, ARL8B / Fold change vs veh, ARL8B / RFU, ZBTB11 / Fold change vs veh, ZBTB11 / RFU, TAMM41 / Fold change vs veh, TAMM41 / RFU, KIAA1704 /// LOC100996395 / Fold change vs veh, KIAA1704 /// LOC100996395 / RFU, ING1 / Fold change vs veh, ING1 / RFU, TRMT61B / Fold change vs veh, TRMT61B / RFU, FUBP3 / Fold change vs veh, FUBP3 / RFU, TP53 / Fold change vs veh, TP53 / RFU, TNKS2 / Fold change vs veh, TNKS2 / RFU, ZFP14 / Fold change vs veh, ZFP14 / RFU, ACTR2 / Fold change vs veh, ACTR2 / RFU, PPP3R1 / Fold change vs veh, PPP3R1 / RFU, PIK3R1 / Fold change vs veh, PIK3R1 / RFU, HNRNPA1 / Fold change vs veh, HNRNPA1 / RFU, RNF170 / Fold change vs veh, RNF170 / RFU, ZNF28 / Fold change vs veh, ZNF28 / RFU, RNGTT / Fold change vs veh, RNGTT / RFU, OGT / Fold change vs veh, OGT / RFU, BRD1 / Fold change vs veh, BRD1 / RFU, MARS / Fold change vs veh, MARS / RFU, ZNF655 / Fold change vs veh, ZNF655 / RFU, FAHD1 / Fold change vs veh, FAHD1 / RFU, BDP1 / Fold change vs veh, BDP1 / RFU, LRRCC1 / Fold change vs veh, LRRCC1 / RFU, ARID1A / Fold change vs veh, ARID1A / RFU, ZNF146 / Fold change vs veh, ZNF146 / RFU, ZNF330 / Fold change vs veh, ZNF330 / RFU, GPN3 / Fold change vs veh, GPN3 / RFU, C9orf123 / Fold change vs veh, C9orf123 / RFU, N4BP2L2 / Fold change vs veh, N4BP2L2 / RFU, ARFIP1 / Fold change vs veh, ARFIP1 / RFU, FAM179B / Fold change vs veh, FAM179B / RFU, BCL10 / Fold change vs veh, BCL10 / RFU, UHRF1BP1L / Fold change vs veh, UHRF1BP1L / RFU, BET1 / Fold change vs veh, BET1 / RFU, CNOT2 / Fold change vs veh, CNOT2 / RFU, ZNF268 / Fold change vs veh, ZNF268 / Fold change vs veh, ZNF507 / RFU, DGCR2 / Fold change vs veh, DGCR2 / RFU, WDSUB1 / Fold change vs veh, WDSUB1 / Fold change vs veh, HSP90B1 /// MIR3652 / RFU, ADSS / Fold change vs veh, ADSS / RFU, GK / Fold change vs veh, GK / RFU, ZNF148 / Fold change vs veh, ZNF148 / RFU, TAF9 / Fold change vs veh, TAF9 / RFU, SLC1A5 / Fold change vs veh, SLC1A5 / RFU, SLMO2 / Fold change vs veh, SLMO2 / RFU, ABCC4 / Fold change vs veh, ABCC4 / RFU, LOC101060439 /// RAP1B / Fold change vs veh, LOC101060439 /// RAP1B / RFU, RFX7 / Fold change vs veh, RFX7 / RFU, GTPBP10 / Fold change vs veh, GTPBP10 / RFU, CNEP1R1 / Fold change vs veh, CNEP1R1 / RFU, BIVM-ERCC5 /// ERCC5 / Fold change vs veh, BIVM-ERCC5 /// ERCC5 / RFU, ILF3 / Fold change vs veh, ILF3 / RFU 11762660_at / Fold change /veh 11762660_at / RFU VCAN (11757783_s_at) / Fold change /veh VCAN (11757783_s_at) / RFU DDX43 (11728927_at) / Fold change /veh DDX43 (11728927_at) / RFU KRT8 (11758188_x_at) / Fold change /veh KRT8 (11758188_x_at) / RFU NKD1 (11759106_at) / Fold change /veh NKD1 (11759106_at) / RFU SRD5A1 (11742802_a_at) / Fold change /veh SRD5A1 (11742802_a_at) / RFU TPSAB1 /// TPSB2 (11721975_s_at) / Fold change /veh TPSAB1 /// TPSB2 (11721975_s_at) / RFU GSTM3 (11746129_a_at) / Fold change /veh GSTM3 (11746129_a_at) / RFU IL23R (11737362_x_at) / Fold change /veh IL23R (11737362_x_at) / RFU TMEM51 (11727254_a_at) / Fold change /veh TMEM51 (11727254_a_at) / RFU PIWIL2 (11732686_x_at) / Fold change /veh PIWIL2 (11732686_x_at) / RFU ORM1 (11744905_x_at) / Fold change /veh ORM1 (11744905_x_at) / RFU CCDC152 (11743942_at) / Fold change /veh CCDC152 (11743942_at) / RFU ECM1 (11717891_a_at) / Fold change /veh ECM1 (11717891_a_at) / RFU IL23R (11748794_a_at) / Fold change /veh IL23R (11748794_a_at) / RFU TNFAIP8L3 (11732012_x_at) / Fold change /veh TNFAIP8L3 (11732012_x_at) / RFU MBOAT4 (11741988_at) / Fold change /veh MBOAT4 (11741988_at) / RFU 11764193_at / Fold change /veh 11764193_at / RFU TMEM53 (11763286_at) / Fold change /veh TMEM53 (11763286_at) / RFU MAGEB2 (11727129_at) / Fold change /veh MAGEB2 (11727129_at) / RFU TMEM200A (11744735_a_at) / Fold change /veh TMEM200A (11744735_a_at) / RFU CCDC152 (11751479_a_at) / Fold change /veh CCDC152 (11751479_a_at) / RFU FAM211A (11726209_a_at) / Fold change /veh FAM211A (11726209_a_at) / RFU RGS16 (11746705_a_at) / Fold change /veh RGS16 (11746705_a_at) / RFU VCAN (11755009_s_at) / Fold change /veh VCAN (11755009_s_at) / RFU RHOB (11743442_s_at) / Fold change /veh RHOB (11743442_s_at) / RFU RGS16 (11720943_a_at) / Fold change /veh RGS16 (11720943_a_at) / RFU RGS16 (11720944_at) / Fold change /veh RGS16 (11720944_at) / RFU, VPS4B / Fold change vs veh, VPS4B / RFU, CREB1 / Fold change vs veh, CREB1 / RFU, DNAJC13 / Fold change vs veh, DNAJC13 / RFU, GNAQ / Fold change vs veh, GNAQ / RFU, CDK5R1 / Fold change vs veh, CDK5R1 / RFU, ZRANB3 / Fold change vs veh, ZRANB3 / RFU, CUL4A / Fold change vs veh, CUL4A / RFU, CCNY / Fold change vs veh, CCNY / RFU, UFL1 / Fold change vs veh, UFL1 / RFU, COG3 / Fold change vs veh, COG3 / RFU, DIAPH2 / Fold change vs veh, DIAPH2 / RFU, SKA2 / Fold change vs veh, SKA2 / RFU, AFF3 / Fold change vs veh, AFF3 / RFU, LMF1 / Fold change vs veh, LMF1 / RFU, IPO11 / Fold change vs veh, IPO11 / RFU, DFFB / Fold change vs veh, DFFB / RFU, FOXP1 / Fold change vs veh, FOXP1 / RFU, CARD8 / Fold change vs veh, CARD8 / RFU, STRN3 / Fold change vs veh, STRN3 / RFU, ADK / Fold change vs veh, ADK / RFU, RASSF2 / Fold change vs veh, RASSF2 / RFU, WIPF1 / Fold change vs veh, WIPF1 / RFU, LARP1B / Fold change vs veh, LARP1B / RFU, RASA1 / Fold change vs veh, RASA1 / RFU, RB1 / Fold change vs veh, RB1 / RFU, PPFIA1 / Fold change vs veh, PPFIA1 / RFU, MAT2A / Fold change vs veh, MAT2A / RFU, CCT5 / Fold change vs veh, CCT5 / RFU, WDR92 / Fold change vs veh, WDR92 / RFU, CUX1 / Fold change vs veh, CUX1 / RFU, TTC7A / Fold change vs veh, TTC7A / RFU, TMEM135 / Fold change vs veh, TMEM135 / RFU, DEPTOR / Fold change vs veh, DEPTOR / RFU, CPM / Fold change vs veh, CPM / RFU, DNAJB6 / Fold change vs veh, DNAJB6 / RFU, CACNA2D3 / Fold change vs veh, CACNA2D3 / RFU, DTX4 / Fold change vs veh, DTX4 / RFU, TFCP2 / Fold change vs veh, TFCP2 / RFU, GMCL1 /// GMCL1P1 / Fold change vs veh, GMCL1 /// GMCL1P1 / RFU, AEBP2 / Fold change vs veh, AEBP2 / RFU, SNHG1 /// SNORD22 /// SNORD25 /// SNORD26 /// SNORD27 /// SNORD28 /// SNORD29 /// SNORD31 / Fold change vs veh, SNHG1 /// SNORD22 /// SNORD25 /// SNORD26 /// SNORD27 /// SNORD28 /// SNORD29 /// SNORD31 / Fold change (Aza/veh), C12orf56 (ProbeSet 11735607_a_at) / Fold change (ACY-1035/veh), C12orf56 (ProbeSet 11735607_a_at) / Fold change (Aza/veh), FGFR1OP (ProbeSet 11751329_s_at) / Fold change (ACY-1035/veh), FGFR1OP (ProbeSet 11751329_s_at) / Fold change (Aza/veh), VPS36 (ProbeSet 11739960_a_at) / Fold change (ACY-1035/veh), VPS36 (ProbeSet 11739960_a_at) / RFU SYPL1 (11715823_x_at) / Fold change /veh SYPL1 (11715823_x_at) / RFU IGFBP7 (11715501_s_at) / Fold change /veh IGFBP7 (11715501_s_at) / RFU REEP3 (11722064_at) / Fold change /veh REEP3 (11722064_at) / RFU IGLL1 (11728026_x_at) / Fold change /veh IGLL1 (11728026_x_at): dose or concentration left out as unconfirmed
Conditions: ProbeSet 11732277_a_at; LIST D

Nc1ncn([C@@H]2O[C@H](CO)[C@@H](O)[C@H]2O)c(=O)n1 [azacitidine]
RFU, FOXP1: 363.93 RFU
